Measurements from PMC6928761, “Trypanocidal Mechanism of Action and in silico Studies of p-Coumaric Acid Derivatives” (International Journal of Molecular Sciences, 2019).
Where two headings read alike, the source gives them in different places.

Key:
[1] = test system: T. cruzi (strain Y) epimastigotes; test: Effect on T. cruzi epimastigote forms (24 h, Neubauer chamber count); format: cell-based, Trypanosoma cruzi; details: for trypanocidal activity (in words): epimastigote forms
Protocol: (§1) The trypanocidal activity of the p-coumaric derivatives (1–12) were evaluated against epimastigotes and trypomastigote forms of T. cruzi (strain Y) at 24 h of incubation and in host LLC-MK2 cells at 24 h of exposure to different concentrations: 100; 50; 25; 12.5; 6.25; 3.12; and 1.56 μg/mL. In the MTT assay it was possible to calculate the IC50 of the tested substances through cell viability, which was calculated in relation to the negative control, whose absorbance was considered 100%.
Preparation of T. cruzi epimastigote was performed by cultivation in 96-well Y-staining plates at a density of 10^6 cells/mL, and using liver tryptose infusion with 10% fetal bovine serum (SFB) supplementation, and 1% antibiotic. They were then treated with p-coumaric derivatives. The grown parasites presenting inhibition were collected and quantified in a Neubauer chamber after incubation at 28 °C for 24 h. To determine relative viability, parasites treated only with sterile PBS medium were used as negative controls (viability of 100%), and experiments were performed in triplicate.

LLC-MK2 cells = test: Cytotoxicity evaluation (mammalian cells), MTT assay; format: cell-based; details: Macaca mulatta, read-out: LLC-MK2 IC50
Protocol: as §1
For cell viability we used a standard MTT assay. LLC-MK2 cells were inoculated in DMEM medium, treated with different concentrations of p-coumaric derivatives and incubated at 37 °C for 24 h. MTT (Amresco, Solon, Ohio, USA; 5 mg/mL) was inserted and the cells were incubated for 4 h.
In the next procedure, formazan was solubilized in 10% sodium dodecyl sulfate (SDS; Vetec, São Paulo, Brazil). For cell viability analysis, a plate reader (Biochrom® Asys Expert Plus, CAMBRIGE, UK) with a wavelength of 570 nm was used. While in relative cell viability cells were calculated, which were treated with sterile PBS in triplicate for negative controls and experiments.

[2] = test system: T. cruzi (strain Y) trypomastigotes; test: Effect on T. cruzi trypomastigote forms (24 h); format: cell-based; details: Trypanosoma cruzi, read-out: Y strain (Tripomastigotes) IC50
Protocol: as §1
Acquisition of T. cruzi trypomastigotes was by infection of LLCMK2 cells using trypomastigotes in T-25/75cm^2 containers at 37 °C with 5% CO2 atmosphere in DMEM (Vitrocell, São Paulo, Brazil) and supplementation of 1% antibiotics and 2% SFB for 24 h. Then the trypomastigotes were plated and treated with p-coumaric acid derivatives. Cell viability was counted after 24 h of incubation at 37 °C. LC50 was obtained. While relative cell viability was calculated using sterile PBS-treated cells for both negative controls and experiments, all in triplicate.

[3] = test system: T. cruzi epimastigote forms; test: Cell death profile, 7-AAD / annexin V-PE flow cytometry; format: cell-based, Trypanosoma cruzi; details: 5.164 and 10.329 μM, 24 h
Protocol: Epimastigote forms were used to assess the cell death profile using labeling with AxPE and 7-AAD. For data interpretation, the cells were divided into four cell populations: viable cells, with low levels of labeling for both fluorochromes (un-labeled); necrotic cells, labeled only with 7-AAD (7AAD +); apoptotic cells, labeled with annexin V-PE only (/ AxPE +); and doubly labeled late apoptotic cells (7AAD +/AxPE +).
Evaluation of the mechanism by which compound 7 induced cell death was performed using flow cytometry with 7-AAD (7-aminoactinomicyn D) and phycoerythrin-labeled Annexin V (AxPE) as fluorescent markers. 7-AAD is a molecule capable of specifically interleaving into DNA. However, it is not able to penetrate cells with intact membranes. Cells with high 7-AAD labeling are thus considered necrotic due to loss of membrane integrity. Annexin V is a 36 KDa protein that in the presence of calcium ions presents high affinity for phosphatidylserine. Thus, Ax/PE is used to evaluate external phosphatidylserine as a marker of apoptosis.
T. cruzi epimastigote forms were cultured at a density of 10^6 cells/mL in the presence of compound 7 (at concentrations of 5.164 and 10.329 μM) for 24 h in a BOD greenhouse. The cells were then transferred to cytometry tubes, centrifuged at 4000 RPM for 5 min, and washed with PBS once, and then washed twice with binding buffer (pH 7.4; 10 mM HEPES solution; 140 mM NaCl and 2.5 CaCl2 mM). After final centrifugation, the pellet was re-suspended in 100 µl binding buffer, 5 µl 7-AAD (0.5 mg/mL), and 5 µl Ax/PE. […] After 15 min of incubation in the dark, 400 µl of binding buffer was added to each tube and cells were analyzed on FACSCalibur (BD Biosciences, San José, Califórnia, EUA).
For each tube, a minimum of 10^4 cells were analyzed for quantitation of the percentage of unlabeled, and individually or double labeled 7-AAD and Ax/PE cells. […] Ax/PE labeled cells were read by an FL2 detector (563 at 606 nm, yellow fluorescence), while 7-AAD labeled cells were read at 615 to 645 nm wavelength (red fluorescence, FL3 detector).

[4] = test system: T. cruzi epimastigote forms; test: Cytoplasmic reactive oxygen species, DCFH-DA flow cytometry; format: cell-based, Trypanosoma cruzi; details: both treated groups (5.164 and 10.329 μM) vs control, 24 h
Protocol: The increased presence of reactive oxygen species (ROS) in the cytoplasm of compound 7 treated epimastigote cells was analyzed using the 2′,7′-dichlorofluorescein diacetate reagent (DCFH-DA). As a lipophilic molecule, when internalized in cells it is cleaved by cytoplasmic esterase into DCFH (reduced 2′-7′-dichlorofluorescein), and as it is unable to cross membranes DCFH reacts with intra-cytoplasmic ROSs producing DCF (oxidized 2′-7′-dichlorofluorescein). DCF emits green fluorescence, and the fluorescent intensity emitted by the cell is directly proportional to the intra-cytoplasmic ROS concentration.
A concentration of 10^6 epimastigotes/mL were placed in 24-well plates in the presence of BIS (5.164 and 10.329 μM). […] After 24 h of incubation with compound 7, the cells were harvested, centrifuged (2800 RPM for 7 min), washed with PBS twice, and re-suspended in 500 µL PBS. At the end, the cells were analyzed by flow cytometer.
In accordance with Kessler et al. (2013), the level of labeling in each group was assessed by the mean geometric fluorescence intensity. The results obtained were expressed as relative fluorescence intensity using the formula:(1) Relative fluorescence=mTEST/mCONTROL where: • mTEST = geometric mean of the group to be analyzed; • mCONTROL = geometric mean of the control group.

[5] = test system: T. cruzi epimastigote forms; test: Mitochondrial transmembrane potential, rhodamine 123 flow cytometry; format: cell-based, Trypanosoma cruzi; details: 5.164 and 10.329 μM, 24 h
Protocol: Mitochondrial transmembrane potential (ΔΨm) was assessed using rhodamine 123 fluorescent dye (Rho123).
Rhodamine 123 (Rho123) is a lipophilic and cationic dye that under normal conditions accumulates in the mitochondrial inter-membrane space. Presenting affinity with hydrogen ions, there is a reduction in the concentration of H^+ ions in the inter-membrane space, which decreases Rho123 accumulation, as illustrated in Figure 5. Changes in ΔΨm can be measured using Rho123, measuring the decrease in green fluorescence.
The compound 7 (5.164 and 10.329 μM) was added to the epimastigotes (10^6 cells) in 24-well plates. At 24 h of incubation, cells were transferred to tubes, centrifuged and washed with PBS. The cells were then re-suspended in 100 µL PBS, and 5 µL of Rho123 solution (200 µg/mL in absolute ethanol) was added to obtain a final concentration of 10 µg/mL. Samples were incubated in the dark for 30 min, washed twice with PBS, and re-suspended in PBS (500 µL/tube). Finally, the samples were analyzed using flow cytometry. Results were evaluated using relative fluorescent intensity, calculated as described in the previous item.

T. cruzi amastigotes = test system: T. cruzi amastigotes; set-up: method as in Lima et al. (2015) [41]; details: ref Lima et al. (2015) [41]; read-out: activity against T. cruzi amastigotes; cited from earlier work
Trypanosoma brucei = test system: Trypanosoma brucei; set-up: method as in Steverding et al. (2016) [47]; details: ref Steverding et al. (2016) [47]; cited from earlier work
[6] = Trypanosoma cruzi, 24 h, read-out: Y strain (Epimastigotes) IC50, 24 h incubation

| Compound | IC50 [1, 6] | IC50 (LLC-MK2 cells; LLC-MK2, 24 h) | trypanocidal activity (in words) [1] | other results |
| --- | --- | --- | --- | --- |
| COC(=O)/C=C/c1ccc(O)cc1 [compound 1, (E)-Methyl 3-(4-hydroxyphenyl)acrylate] | – | – | – | IC50 ([1]; Trypanosoma cruzi, 24 h incubation, read-out: Y strain (Epimastigotes) IC50): 601 ± 249 µM; IC50 (LLC-MK2 cells; LLC-MK2, 24 h exposure, MTT): > 561 µM |
| CCOC(=O)/C=C/c1ccc(O)cc1 [compound 2] | 216 ± 109 µM | 443 ± 109 µM | – | – |
| CCCOC(=O)/C=C/c1ccc(O)cc1 [compound 3, Propyl p-coumarate] | 16.8 ± 1.93 µM | 446 ± 187 µM | good trypanocidal activity | IC50 [2]: 117 ± 59.1 µM |
| CC(C)OC(=O)/C=C/c1ccc(O)cc1 [compound 4] | 335 ± 54.3 µM | 290 ± 49 µM | – | – |
| COCCOC(=O)/C=C/c1ccc(O)cc1 [compound 5, 2-methoxyethyl p-coumarate] | 32 ± 5.39 µM | > 450 µM | good trypanocidal activity | IC50 [2]: 360 ± 112 µM |
| CCCCOC(=O)/C=C/c1ccc(O)cc1 [compound 6] | 155 ± 33.1 µM | 274 ± 46.8 µM | – | – |
| CCCCCOC(=O)/C=C/c1ccc(O)cc1 [compound 7, pentyl p-coumarate] | 5.16 ± 1.28 µM | 123 ± 22.6 µM | good trypanocidal activity | IC50 [2]: 61.6 ± 28.6 µM; cell death profile [3]: cell death by necrosis; percentage of 7-AAD-labeled cells [3]: increase; percentage of viable cells [3]: reduction; relative fluorescence (DCF, reactive oxygen species) [4]: increase; rhodamine 123 accumulation (mitochondrial transmembrane potential) [5]: reduction |
| CC(C)CCOC(=O)/C=C/c1ccc(O)cc1 [compound 8, isopentyl p-coumarate] | 13.2 ± 2.56 µM | 120 ± 19.2 µM | good trypanocidal activity | IC50 [2]: 111 ± 38.7 µM |
| CCCCCCOC(=O)/C=C/c1ccc(O)cc1 [compound 9] | 68.9 ± 18.1 µM | 131 ± 16.9 µM | – | – |
| CCCCCCCCCCCCOC(=O)/C=C/c1ccc(O)cc1 [compound 10] | 50.6 ± 18.9 µM | 141 ± 15.2 µM | – | – |
| Cc1ccc(COC(=O)/C=C/c2ccc(O)cc2)cc1 [compound 11] | 75.5 ± 13.4 µM | 160 ± 97.6 µM | did not show significant trypanocidal activity | – |
| CC(C)c1ccc(COC(=O)/C=C/c2ccc(O)cc2)cc1 [compound 12] | 68.9 ± 18.1 µM | 2.74 µM | did not show significant trypanocidal activity | IC50 ([1]; read-out: Y strain (Epimastigotes) IC50, 24 h incubation): 40.1 ± 10.1 µM |
| CCOC(=O)/C=C/c1ccc(O)c(O)c1 [ethyl caffeate] | – | – | – | IC50 (T. cruzi amastigotes): 18.3 µM |
| CC(C)CCOC(=O)/C=C/c1ccc(O)c(O)c1 [isopentyl caffeate] | – | – | – | effect on parasite growth (Trypanosoma brucei): inhibited parasite growth |
